Measured values taken from patent US20080176851A1, “Method for inhibiting lymphangiogenesis and inflammation” (Shiseido Company, Ltd., priority 2006, published 2008).
“Also recorded” adds a separate entry of the source.

Legend:
LEC [1] = test: LEC proliferation assay (5-methylumbelliferylheptanoate fluorescence); format: cell-based, human
Protocol: (§1) Human dermal BVEC and LEC were isolated from neonatal human foreskins by immunomagnetic purification as previously described(18, 19). The lineage-specific differentiation was confirmed by real-time RT-PCR for the lymphatic vascular markers Prox1, LYVE-1 and podoplanin, and for the blood vascukar endothelial markers VEGF receptor-1 and VEGF-C, as well as by immunostains for CD31, Prox1 and podoplanin as described(18, 19). Cells were cultured in endothelial basal medium (Cambrex, Verviers, Belgium) supplemented with 20% fetal bovine serum (Gibco, Paisley, UK), antibiotics, 2 mM L-glutamine, 10 μg/ml hydrocortisone and 2.5×10^−2 mg/ml N-6,2-O-dibutyryl-adenosine 3′,5′-cyclic monophosphate (all from Fluka, Buchs, Switzerland) for up to eleven passages.
LEC (1.5×10^3) were seeded into fibronectin-coated 96-well plates as described(19). For proliferation studies, quinduplicate wells were treated or not with different concentrations (0.1 to 10 μM) of the NO donor SNAP (S-Nitroso-N-acetyl-D,L-penicillamine) (Cayman Chemical, Ann Arbor, Mich.) in EBM containing 2% fetal bovine serum. In additional assays, LEC were incubated with 10 μM of SNAP, in the presence or absence of the specific guanylate cyclase inhibitor NS-2028 (100 nM, Cayman Chemical, Ann Arbor, Mich.). After 72 hours, cells were incubated with 5-methylumbelliferylheptanoate as described. The fluorescence intensity, proportional to the number of viable cells, was measured using a Spectra Max GEMINI EM (Bucher Biotech AG, Basel, Switzerland). Haptotatic cell migration was studied as described(19), using 24-well FluoroBlok inserts of 8 μm pore size (Falcon, Franklin Lakes, N.J.). […] After 3 hours incubation at 37° C., cells on the underside of the inserts were stained with Calcein-AM (Molecular Probes), and the fluorescence intensity, proportional to the number of viable cells, was measured using a Spectra Max GEMINI EM as described(19). […] Representative images were captured and the total length of tube-like structures per area was measured using the IP-LAB software as described(19). […]

LEC [2] = test: Haptotactic LEC migration assay (FluoroBlok inserts); format: cell-based, human; conditions: 10 μM SNAP, 100 nM NS-2028, 3 hours
Protocol: as §1
(§2) LEC (1.5×10^3) were seeded into fibronectin-coated 96-well plates as described(19). […] The fluorescence intensity, proportional to the number of viable cells, was measured using a Spectra Max GEMINI EM (Bucher Biotech AG, Basel, Switzerland). […] After 3 hours incubation at 37° C., cells on the underside of the inserts were stained with Calcein-AM (Molecular Probes), and the fluorescence intensity, proportional to the number of viable cells, was measured using a Spectra Max GEMINI EM as described(19). […] Representative images were captured and the total length of tube-like structures per area was measured using the IP-LAB software as described(19). […]

HR-1 hairless mice [3] = test: Histology (hematoxylin-eosin) and MOMA-2 immunohistochemistry of UVB-irradiated ears; format: in vivo; conditions: for MOMA-2 positive cells / macrophage infiltration in the dermis / edema formation in the dermis vs control-treated: day 4 after UVB irradiation
Protocol: (§3) Immunofluorescence analysis was performed on 6-μm cryostat sections of human neonatal foreskins as described, using polyclonal antibodies against LYVE-1 (kindly provided by Dr. David Jackson, Oxford, UK), sGCα1, sGCβ1, eNOS (as described above), or a mouse monoclonal antibody against human podoplanin (20) (clone D2-40, Signet Laboratories, Dedham, Mass.), and corresponding secondary antibodies labeled with AlexaFluor488 or AlexaFluor594 (Molecular Probes, Eugene, Oreg.). Immunohistochemical analysis was performed on 5 μm AMEX-fixed sections as described(30), using antibodies against the macrophage monocyte marker MOMA-2 (BMA Biomedicals AG, Switzerland) or LYVE-1. Routine hematoxylin-eosin staining was also performed. Sections were examined by a Nikon E-600 microscope (Nikon, Melville, N.Y.) and images were captured with a SPOT digital camera (Diagnostic Instruments, Sterling Heights, Mich.). Computer-assisted morphometric analyses of representative LYVE-1-stained sections were performed as described(3).
(§4) A total of 15 female albino HR-1 hairless mice (Hoshino Laboratory Animal Co., Ltd, Japan) at 8 weeks of age were exposed to a single dose of 200 mJ/cm^2 of UVB irradiation, using ten Toshiba FL-20 SE fluorescent lamps that deliver energy in the UVB (280-340 nm) wave length range with a maximum energy at a wavelength of 305 nm as described(31). Beginning one day before UVB irradiation, the right ears were daily treated topically with 1 mM of SNAP, 10 μM of NS-2028, or 1 mM of SNAP together with 100 μl of 10 μM of NS-2028 in a 50% ethanol solution (n=5 per group) until day 3 after UVB irradiation (5 times total). The left ears were treated with vehicle only. The thickness of the ears was measured every day until day 4 after the UVB irradiation. At 4 days after the UVB irradiation, mouse ears were fixed in cold acetone (AMeX procedure) (30)and were processed for histological analysis of paraffin sections. All animal studies were approved by the Shiseido Life Science Research Center Committee on Research Animal Care.

HR-1 hairless mice [4] = test: UVB irradiation-induced ear swelling; format: in vivo; conditions: for ear swelling after UVB irradiation vs control-treated: 200 mJ/cm^2 UVB, topical daily 1 mM SNAP or 10 μM NS-2028, days 2-4
Protocol: as §4

lymphatic vessels = test: LYVE-1 immunohistochemistry and morphometric analysis of cutaneous lymphatic vessels after UVB; format: in vivo; conditions: UVB-irradiated mice; for enlargement of lymphatic vessels in the dermis (LYVE-1): vs vehicle
Protocol: as §3, §4

cGMP production in LEC = test: cGMP enzyme immunoassay in siRNA-transfected LEC; format: cell-based, human
Protocol: siRNA transfection was performed using the Basic Nucleofactor Kit for primary mammalian endothelial cells (Amaxa Biosystems, CITY, Germany). Briefly, after trypsinization, LEC (5×10^5) were resuspended in 100 μl of basic nucleofactor solution. Cells were transfected by electroporation (Nucleofactor II, Amaxa Biosystems), using 1.6 μg of siRNA containing two different double-stranded oligonucleotides for each sGCα2 or sGCα1. The following siRNAs were used: GCα1: CCUUGUACAUAUAUCAGAUtt and GGCACCCUUAAAGAUUUUUtt, GCα2: CGAUACAGCAGACUCUCAAtt and GCUAUGCUCUGAUGUUUCAtt. Control siRNA (Silencer negative control #1 siRNA, Ambion, Cambridgeshire, UK) comprising a 19-bp scrambled sequence with 3′dT overhangs was used as a control; the sequences has no significant sequence homology to any known gene sequence. At 72 hours after tranfection, cells were used for RNA purification or for cGMP assays. Efficient knockdown of mRNA expression was confirmed by TaqMan real-time RT-PCR for sGCα1 and sGCα2 (Applied Biosystems assay ID for sGCα2 was Hs00181365_ml). For cGMP enzyme immunoassays, 1×10^4 siRNA-transfected LEC were seeded into individual wells of a 96-well plate and were incubated with 2% FBS-containing medium. After 24 hours, cells were incubated with several concentrations of SNAP (1-100 μM) for 15 minutes. The cellular cGMP concentrations were measured using an EIA immunoassay kit (Amersham Biosciences, Freiburg, Germany).

LEC [5] = test: LEC tube formation assay (type I collagen overlay); format: cell-based, human
Protocol: as §1, §2

[6] = day 4 after UVB, SNAP in the presence of NS-2028

Compound | effect on SNAP-induced LEC proliferation (LEC [1]; 10 μM SNAP, NS-2028 100 nM, 72 hours) | effect on untreated LEC (proliferation) (LEC [1]; NS-2028 alone) | effect on SNAP-induced LEC migration (LEC [2]) | MOMA-2 positive cells / macrophage infiltration in the dermis (HR-1 hairless mice [3]) | edema formation in the dermis vs control-treated (HR-1 hairless mice [3]) | SNAP-induced edema formation (HR-1 hairless mice [3]; [6]) | SNAP-induced macrophage infiltration (HR-1 hairless mice [3]; [6]) | ear swelling after UVB irradiation vs control-treated (HR-1 hairless mice [4]) | SNAP-induced augmentation of the UVB response (ear swelling) (HR-1 hairless mice [4]; combined topical treatment 1 mM SNAP and 10 μM NS-2028) | SNAP-induced enlargement of lymphatic vessels (lymphatic vessels; SNAP with NS-2028) | average size of lymphatic vessels (lymphatic vessels; day 4, mean±SEM n=5) [μm^2] | enlargement of lymphatic vessels in the dermis (LYVE-1) (lymphatic vessels) | minimal effective concentration for induction of LEC proliferation (LEC [1]; SNAP 0.1 to 10 μM, 72 hours, EBM 2% fetal bovine serum) [µM] | cGMP production in control siRNA- and sGCα2-siRNA transfected LEC (cGMP production in LEC; SNAP 1-100 μM, 15 minutes) | minimal effective dose for increased cGMP production (cGMP production in LEC; control siRNA-transfected and sGCα2 siRNA-transfected LEC, SNAP 15 minutes) [µM] | induction of cGMP production in sGCα1-siRNA transfected LEC (cGMP production in LEC; sGCα1 knockdown, SNAP 1-100 μM) | formation of tube-like structures vs untreated cultures (LEC [5]; 1 μM or 10 μM SNAP) | minimal effective dose for in vitro cord formation by LEC (LEC [5]; type I collagen gel overlay, 6 hours) [µM] | area occupied by lymphatic vessels (lymphatic vessels; day 4, mean±SEM n=5) [%]
4H-8-Bromo-1,2,4-oxadiazolo(3,4-d)benz(b)(1,4)oxazin-1-one [NS-2028] | significantly blocked | did not have any effect | blocked; also recorded: strongly inhibited | less MOMA-2 positive cells | decreased | blocked | blocked | significantly reduced | completely prevented | inhibited | 350.1 | completely blocked | – | – | – | – | – | – | –
CC(=O)NC(C(=O)O)C(C)(C)SN=O (racemic) [SNAP, S-Nitroso-N-acetyl-D,L-penicillamine] | – | – | – | strongly enhanced | enhanced | – | – | significantly enhanced | – | – | 730.7 | pronounced enlargement | 1 | dose-dependently induced | 1 | no induction of cGMP was detected; also recorded: completely prevented | potently promoted | 1 | 2.18
